Measured values as given in patent US7449476B2, “Tetrahydrocarboline antiviral agents” (priority 2004, dated 2008).

Tested on: HIV-1
Assay: Single-round infectious HIV-1 luciferase reporter virus infection of HeLa CD4 cells
Type: cell-based
Conditions: Human immunodeficiency virus 1, HeLa, 72 h
Protocol: Cells: (virus production) human embryonic kidney cell line, 293, was propagated in Dulbecco's Modified Eagle Medium (Invitrogen, Carlsbad, Calif.) containing 10% fetal Bovine serum (FBS, Sigma, St. Louis, Mo.); (virus infection) human epithelial cell line, HeLa, expressing the HIV-1 receptor CD4 was propagated in Dulbecco's Modified Eagle Medium (Invitrogen, Carlsbad, Calif.) containing 10% fetal Bovine serum (FBS, Sigma, St. Louis, Mo.) and supplemented with 0.2 mg/mL Geneticin (Invitrogen, Carlsbad, Calif.).
Virus: single-round infectious reporter virus was produced by co-transfecting human embryonic kidney 293 cells with an HIV-1 envelope DNA expression vector and a proviral cDNA containing an envelope deletion mutation and the luciferase reporter gene inserted in place of HIV-1 nef sequences. Transfections were performed using lipofectAMINE PLUS reagent as described by the manufacturer (Invitrogen, Carlsbad, Calif.).
Experiment: HeLa CD4 cells were plated in 96 well plates at a cell density of 1×10^4 cells per well in 100 μl Dulbecco's Modified Eagle Medium containing 10% fetal Bovine serum and incubated overnight. Compound was added in a 2 μl dimethylsulfoxide solution, so that the final assay concentration would be ≦10 μM. Single-round infectious reporter virus (100 μL) in Dulbecco's Modified Eagle Medium was then added to the plated cells and compound at an approximate multiplicity of infection (MOI) of 0.01, resulting in a final volume of 200 μl per well. Virally-infected cells were incubated at 37 degrees Celsius, in a CO2 incubator, and harvested 72 h after infection. Viral infection was monitored by measuring luciferase expression from viral DNA in the infected cells using a luciferase reporter gene assay kit, as described by the manufacturer (Roche Molecular Biochemicals, Indianapolis, Ind.). Infected cell supernatants were removed and 50 μl of lysis buffer was added per well. After 15 minutes, 50 μl of freshly-reconstituted luciferase assay reagent was added per well. Luciferase activity was then quantified by measuring luminescence using a Wallac microbeta luminescence reader.
The percent inhibition for each compound was calculated by quantifying the level of luciferase expression in cells infected in the presence of each compound as a percentage of that observed for cells infected in the absence of compound and subtracting such a determined value from 100. The effective concentration for fifty percent inhibition (EC50) was calculated with Microsoft Excel Xlfit curve fitting software. For each compound, curves were generated from percent inhibition calculated at 10 different concentrations by using a four paramenter logistic model (model 205).

SMILES | EC50 [nM]
COc1ncc(OC)c2c(C(=O)C(=O)N3CCc4c(c5ccccc5n4-c4ccccc4)C3)c[nH]c12 [Example 1, 1-(5-Phenyl-1,3,4,5-tetrahydro-pyrido[4,3-b]indol-2-yl)-2-(4,7-dimethoxy-6-azaindol-3-yl)-ethane-1,2-dione] | < 1000
COc1ncc(OC)c2c(C(=O)C(=O)N3CCc4[nH]c5ccccc5c4C3)c[nH]c12 [Example 2, 1-(1,3,4,5-Tetrahydro-pyrido[4,3-b]indol-2-yl)-2-(4,7-dimethoxy-6-azaindol-3-yl)-ethane-1,2-dione] | > 5000
COc1ncc(OC)c2c(C(=O)C(=O)N3CCc4[nH]c5ccc(F)cc5c4C3)c[nH]c12 [Example 3, 1-(8-Fluoro-1,3,4,5-tetrahydro-pyrido[4,3-b]indol-2-yl)-2-(4,7-dimethoxy-6-azaindol-3-yl)-ethane-1,2-dione] | > 5000
COc1ncc(OC)c2c(C(=O)C(=O)N3CCc4c(c5cc(F)ccc5n4C)C3)c[nH]c12 [Example 4, 1-(8-Fluoro-5-methyl-1,3,4,5-tetrahydro-pyrido[4,3-b]indol-2-yl)-2-(4,7-dimethoxy-6-azaindol-3-yl)-ethane-1,2-dione] | < 1000
COc1ncc(OC)c2c(C(=O)C(=O)N3CCc4[nH]c5ccc(C(F)(F)F)cc5c4C3)c[nH]c12 [Example 5, 1-(8-Trifluoromethyl-1,3,4,5-tetrahydro-pyrido[4,3-b]indol-2-yl)-2-(4,7-dimethoxy-6-azaindol-3-yl)-ethane-1,2-dione] | 1000 to 5000
COc1cnc(-n2cnc(C)n2)c2[nH]cc(C(=O)C(=O)N3CCc4c(c5ccccc5n4-c4ccccc4)C3)c12 [Example 6, 1-(5-Phenyl-1,3,4,5-tetrahydro-pyrido[4,3-b]indol-2-yl)-2-[4-methoxy-7-(3-methyl-1,2,4-triazol-1-yl)-6-azaindol-3-yl]-ethane-1,2-dione] | < 1000
COc1cnc(-n2ncnc2C)c2[nH]cc(C(=O)C(=O)N3CCc4c(c5ccccc5n4-c4ccccc4)C3)c12 [Example 7, 1-(5-Phenyl-1,3,4,5-tetrahydro-pyrido[4,3-b]indol-2-yl)-2-[4-methoxy-7-(5-methyl-1,2,4-triazol-1-yl)-6-azaindol-3-yl]-ethane-1,2-dione] | < 1000
COc1cnc(-n2cnc(C)n2)c2[nH]cc(C(=O)C(=O)N3CCc4c(c5cc(F)ccc5n4-c4ccccc4)C3)c12 [Example 8, 1-(8-Fluoro-5-phenyl-1,3,4,5-tetrahydro-pyrido[4,3-b]indol-2-yl)-2-[4-methoxy-7-(3-methyl-1,2,4-triazol-1-yl)-6-azaindol-3-yl]-ethane-1,2-dione] | < 1000
COc1cnc(-n2ccnn2)c2[nH]cc(C(=O)C(=O)N3CCc4c(c5cc(F)ccc5n4-c4ccccc4)C3)c12 [Example 9, 1-(8-Fluoro-5-phenyl-1,3,4,5-tetrahydro-pyrido[4,3-b]indol-2-yl)-2-[4-methoxy-7-(1,2,3-triazol-1-yl)-6-azaindol-3-yl]-ethane-1,2-dione] | < 1000
